Tests used:
[1] = target: T1, SnxA (full-length SnxA-GFP; DDB_G0289833) (Dictyostelium discoideum, UniProt Q54GY1); test: microscopy of GFP recruitment to membrane-coated beads, probe titration; assay type: binding; settings: 5 mol% phosphoinositide in 95 mol% POPC bilayers on silica beads; 150 mM NaCl, 20 mM Hepes, 0.5 mM TCEP, room temperature; acyl chains not given; avidity of dimer; read-out: apparent Kd
T1 construct: full length (PX domain plus coiled coil); N-terminal 6xHis and eGFP kept; E. coli BL21; mostly dimer, apparent 181 kD by mass photometry
T1 sequence (Q54GY1 1-186): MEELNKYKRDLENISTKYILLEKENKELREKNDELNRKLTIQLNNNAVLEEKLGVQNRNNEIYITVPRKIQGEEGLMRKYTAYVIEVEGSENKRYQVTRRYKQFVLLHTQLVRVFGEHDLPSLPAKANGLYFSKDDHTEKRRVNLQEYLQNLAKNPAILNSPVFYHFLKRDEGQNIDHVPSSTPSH

[2] = target: T2, 2xPX (2xPX-GFP, tandem repeat of the SnxA PX domain) (Dictyostelium discoideum, UniProt Q54GY1); test: as above; assay type: binding; settings: 5 mol% phosphoinositide in 95 mol% POPC bilayers on silica beads; 150 mM NaCl, 20 mM Hepes, 0.5 mM TCEP, room temperature; acyl chains not given; avidity of tandem domains; read-out: apparent Kd
T2 construct: gene DDB_G0289833; N-terminal 6xHis and eGFP kept; E. coli BL21; single population, apparent 104 kD by mass photometry

[3] = target: full-length SnxA, recombinant N-terminal 6xHis and eGFP fusion (Dictyostelium discoideum); test: mass photometry; recombinant GFP fusions diluted to 25-50 nM in 250 mM NaCl, 20 mM Hepes, 0.5 M TCEP (so in the source) immediately before measurement; OneMP mass photometer; monomer to dimer

PI(3,5)P2
Kd [1]: 187 ± 13 nM
Kd [2]: 218 ± 7 nM

full-length SnxA, recombinant N-terminal 6xHis and eGFP fusion (natural protein)
percent of the protein at the dimer's apparent mass [3]: 85%
stoichiometry N [3]: 2
